Tested on: acetyl transferase from Taxus baccata
Assay: Enzymatic acetylation of substrates in the enzyme reactor (substrate specificity)
Assay type: biochemical
Conditions: used as in the example in place of 10-DAB; compared with 10-deacetyl baccatin III
Protocol: The synthesis in the enzyme reactor is carried out under the following conditions: The solvent used in the process is a 1:4 mixture of chloroform and heptane.

Molecule | acetylation as substrate of the acetyl transferase
CC(=O)O[C@@]12CO[C@@H]1C[C@H](O)[C@@]1(C)C(=O)[C@H](O)C3=C(C)[C@@H](OC(=O)[C@H](O)[C@@H](NC(=O)c4ccccc4)c4ccccc4)C[C@@](O)([C@@H](OC(=O)c4ccccc4)[C@H]21)C3(C)C [10-Deacetyl taxol] | significantly weaker as a substrate
CC(=O)O[C@H]1C(=O)[C@@]2(C)[C@H]([C@H](OC(=O)c3ccccc3)[C@]3(O)C[C@H](OC(=O)[C@H](O)[C@@H](NC(=O)c4ccccc4)c4ccccc4)C(C)=C1C3(C)C)[C@]1(OC(C)=O)CO[C@@H]1C[C@@H]2O [taxol] | not acetylated
baccatin III | not acetylated
